US7157498B2, “Diamines having a CaSR modulating activity” (Centre National de la Recherche Scientifique (CNRS), priority 2000, dated 2007)

Legend:
CaSR [1] = biological target: T1, CaSR (Rattus norvegicus, UniProt P48442); assay: Accumulation of tritiated inositol phosphates [3H]IP induced by 9 mM extracellular Ca2+ in transfected CHO(CaSR) cells; assay type: cell-based; conditions: for type of activity on production of [^3H]IP (calcimimetic/calcilytic) / inhibition of the accumulation of [^3H]IP induced by 9 mM (Ca^2+)e: 10 μM compound, 9 mM (Ca2+)e; for remaining activity at 10 µM: 0.5 h, compounds at 10 μM, induced by 9 mM Ca2+, control = 9 mM (Ca2+)e alone = 100, mean of 2 to 4 experiments, read-out: Accumulation of [^3H]IP % relative to the control; for remaining activity at 10 µM / inhibition of the accumulation of [^3H]IP induced by 9 mM (Ca^2+)e: CHO(CaSR) cells
T1 construct: expressed in transfected cells; host or cells: CHO (Chinese hamster ovary) cells
T1 sequence (P48442 20-1079): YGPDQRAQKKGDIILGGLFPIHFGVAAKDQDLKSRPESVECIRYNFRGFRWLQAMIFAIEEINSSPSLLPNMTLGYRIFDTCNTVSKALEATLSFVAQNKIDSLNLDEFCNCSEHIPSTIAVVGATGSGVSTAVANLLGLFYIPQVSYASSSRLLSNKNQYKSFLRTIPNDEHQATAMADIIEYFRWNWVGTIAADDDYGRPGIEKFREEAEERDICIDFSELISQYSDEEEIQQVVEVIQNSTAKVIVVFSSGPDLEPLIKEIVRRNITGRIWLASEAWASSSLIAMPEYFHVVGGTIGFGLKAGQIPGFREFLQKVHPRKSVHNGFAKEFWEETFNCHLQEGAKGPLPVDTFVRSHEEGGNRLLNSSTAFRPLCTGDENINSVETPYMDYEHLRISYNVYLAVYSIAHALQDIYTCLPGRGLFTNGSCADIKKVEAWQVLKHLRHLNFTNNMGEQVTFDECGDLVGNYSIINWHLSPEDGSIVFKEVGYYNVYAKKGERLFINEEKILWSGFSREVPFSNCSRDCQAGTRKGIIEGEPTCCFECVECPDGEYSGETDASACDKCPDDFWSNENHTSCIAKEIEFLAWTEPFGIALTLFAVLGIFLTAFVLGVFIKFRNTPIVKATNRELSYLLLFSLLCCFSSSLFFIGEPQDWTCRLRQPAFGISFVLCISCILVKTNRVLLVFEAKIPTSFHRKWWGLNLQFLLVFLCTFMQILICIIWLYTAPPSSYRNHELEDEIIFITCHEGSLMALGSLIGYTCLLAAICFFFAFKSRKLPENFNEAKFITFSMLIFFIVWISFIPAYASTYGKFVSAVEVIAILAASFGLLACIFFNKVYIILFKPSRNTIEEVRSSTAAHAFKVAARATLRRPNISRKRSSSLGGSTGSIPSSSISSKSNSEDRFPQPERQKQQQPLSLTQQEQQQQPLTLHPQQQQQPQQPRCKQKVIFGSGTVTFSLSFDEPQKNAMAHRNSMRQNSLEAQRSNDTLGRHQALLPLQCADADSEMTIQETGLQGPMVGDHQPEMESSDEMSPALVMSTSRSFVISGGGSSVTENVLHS
Excerpt: Complementary DNA encoding rat CaSR has been isolated from a rat striatum cDNA library (Ruat et al., Proc. Natl. Acad. Sci., 1995, vol. 92, p. 3161–3165). This receptor is identical with respect to its amino acid sequence to that expressed in the other tissues. Transfected Chinese hamster ovary_(CHO) cells expressing rat CaSR(CHO(CaSR)) have been characterized and the chemical signals (second messengers) induced by the activation of this receptor have been analyzed. Thus, a biochemical test which makes it possible to measure the accumulation of tritiated inositol phosphates [^3H]IP in response to the activation of the receptor has been developed (Ruat et al., J. Biol. Chem., 1996, vol. 271, p. 5972–5975; Ferry et al., Biochem. Biophys. Res. Commun., 1997, vol. 238, p. 866–873).
The technique for measuring the accumulation of tritiated inositol phosphates [^3H]IP which is used is that described in Ruat et al., J. Biol. Chem., 1996, vol. 271, p. 5972-5975. Only the mode of incubating the compounds is modified. After a preincubation of 15 min of the compounds according to the invention in the presence of a basal concentration of (Ca^2+)e equal to 2 mM, the compounds are incubated for 30 min in the presence of a (Ca^2+)e concentration of 4 or 9 mM. The results, mean of 2 to 4 independent experiments each carried out in triplicate, are grouped together in Table 2.
The activity of the compounds is expressed as a percentage of the control activity measured in the presence of (Ca^2+)e alone of concentration 4 mM or 9 mM.

[2] = clinical trials Phase I-II; cited from earlier work
[3] = test system: cell proliferation in the parathyroid gland; conditions: rat model reproducing chronic renal insufficiency; cited from earlier work
CHO(WT*) cells = assay: Specificity: [3H]IP accumulation in control CHO(WT*) cells not expressing CaSR, various calcium, with or without ATP; assay type: cell-based, Chinese hamster; conditions: PHD 263 10 μM
Protocol: (§1) To assess the specificity of the antagonist activity of the molecules according to the invention, the effect of one of them, PHD 263, was studied under various calcium conditions, in the presence or otherwise of ATP on CHO(WT*) and CHO(CaSR) cells. […] The accumulation of tritiated inositol phosphates is expressed as a percentage of the basal level observed in the presence of 2 mM Ca^2+ (100) in the CHO(WT*) or CHO(CaSR) cells.
PHD 263 (10 μM) has the same effect on the [^3H]IP response in the CHO(WT*) cells in the presence of 2 or 4 mM calcium, indicating an absence of a nonspecific effect of the compound linked to the variation of [Ca^2+]e.

CaSR [4] = biological target: T1, CaSR; assay: Specificity: [3H]IP accumulation by compound alone in CHO(CaSR) cells, relative to basal level at 2 mM Ca2+; assay type: cell-based; conditions: compound alone at 10 μM; CHO(CaSR) cells (sentence also names control CHO(WT*) cells)
Protocol: as §1

| SMILES | remaining activity at 10 µM (CaSR [1]) [%] | also measured |
| --- | --- | --- |
| CC(N[C@H]1CCCCC1NCc1ccc(F)cc1)c1cccc2ccccc12.Cl.Cl (some centres unmarked) [PHD 348] | 119 ± 12 | type of activity on production of [^3H]IP (calcimimetic/calcilytic) (CaSR [1]): calcimimetic activity |
| CC(N[C@H]1CCCCC1NS(=O)(=O)c1ccc(OC(F)(F)F)cc1)c1cccc2ccccc12.Cl (some centres unmarked) [PHD 401] | 18 ± 3 | inhibition of the accumulation of [^3H]IP induced by 9 mM (Ca^2+)e (CaSR [1]): 82% |
| CC(N[C@H]1CCCCC1NS(=O)(=O)c1ccc2ccccc2c1)c1cccc2ccccc12 (some centres unmarked) [PHD 404] | 39 ± 7 | – |
| COc1ccc(S(=O)(=O)NC2CC=CC[C@@H]2NC(C)c2cccc3ccccc23)cc1 (some centres unmarked) [PHD 511] | 75 ± 10 | – |
| CC(N[C@H]1CCCCC1NS(=O)(=O)c1ccc(Cl)cc1)c1cccc2ccccc12 (some centres unmarked) [PHD 406] | 28 ± 1 | – |
| COc1ccc(S(=O)(=O)NC2CCCC[C@@H]2NC(C)c2cccc3ccccc23)cc1OC (some centres unmarked) [PHD 349] | 64 ± 5 | – |
| CC(N[C@H]1CCCCC1NCc1ccccc1Cl)c1cccc2ccccc12.Cl.Cl (some centres unmarked) [PHD 346] | 110 ± 6 | type of activity on production of [^3H]IP (calcimimetic/calcilytic) (CaSR [1]): calcimimetic activity |
| CC(N[C@H]1CCCCC1NS(=O)(=O)c1ccc([N+](=O)[O-])cc1)c1cccc2ccccc12 (some centres unmarked) [PHD 397] | 43 ± 1 | – |
| CC(N[C@H]1CCCCC1NS(=O)(=O)c1ccccc1Cl)c1cccc2ccccc12 (some centres unmarked) [PHD 350] | 74 ± 2 | inhibition of the accumulation of [^3H]IP induced by 9 mM (Ca^2+)e (CaSR [1]): 25% |
| COc1ccc(OC)c(S(=O)(=O)NC2CCCC[C@@H]2NC(C)c2cccc3ccccc23)c1 (some centres unmarked) [AK 115] | 100 ± 4 | – |
| CC(N[C@H]1CCCCC1NS(=O)(=O)c1ccc(Cl)c(Cl)c1Cl)c1cccc2ccccc12 (some centres unmarked) [AK 117] | 42 ± 5 | – |
| CC(N[C@H]1CCCCC1NS(=O)(=O)c1ccc(C(F)(F)F)cc1)c1cccc2ccccc12 (some centres unmarked) [PHD 403] | 21 ± 1 | – |
| COc1cccc([C@@H](C)NCCCc2ccccc2Cl)c1 [NPS-R-568] | – | bioavailability [2]: low bioavailability; reduction of cell proliferation observed in the parathyroid gland [3]: 20–50% |
| CC(N[C@H]1CCCCC1NS(=O)(=O)c1cccc(Cl)c1)c1cccc2ccccc12 (some centres unmarked) [AK 116] | 40 ± 5 | – |
| COc1ccc(S(=O)(=O)NC2CCCC[C@@H]2NC(C)c2cccc3ccccc23)cc1.Cl (some centres unmarked) [PHD 263, N1-(4-methoxybenzenesulfonyl)-N-2-[1-(1-naphthyl)ethyl]cyclohexane-1,2-diamine] | 37 ± 5 | effect on the ATP-induced [^3H]IP response (CHO(WT*) cells; CHO(WT) cells, in the presence of ATP): adds to that of ATP; effect on the [^3H]IP response at 2 versus 4 mM calcium (CHO(WT*) cells; CHO(WT*) cells, 2 or 4 mM calcium): same effect; accumulation of [^3H]IP as percentage of the basal level observed at 2 mM Ca2+ (100) (CaSR [4]): 124±10%; melting point: 135 to 140 °C (dec.); inhibition of the accumulation of [^3H]IP induced by 9 mM (Ca^2+)e (CaSR [1]): 64% |
| CC(N[C@H]1CCCCC1NS(=O)(=O)c1ccccc1)c1cccc2ccccc12 (some centres unmarked) [PHD 408] | 56 ± 4 | – |
